Where two headings read alike, the source gives them in different places. Blank lines part the entries; values can stand above or below the molecule they belong to.
What was measured:
[1] = tested on: HepG2 cells; assay: Cholesterol synthesis in HepG2 cell culture model (14C-acetate incorporation); assay type: cell-based, human; details: for activity at 10 µM: Homo sapiens, HepG2 cells, 4 hours incubation, read-out: Cholesterol Biosynthesis
Method: (§1) The human hepatoma HepG2 cell culture model was employed to compare the intrinsic activities of the synthetic analogues relative to the tocotrienols. HepG2 cells were incubated with the indicated compounds for 4 hours at 10 μM. Cholesterol synthesis was assayed by ^14 C-acetate incorporation over the final hour of incubation, and HMG-CoA reductase suppression (specific activity) was assayed in the microsomal fraction isolated from parallel cultures at the end of the 4 hour incubation.

[2] = In vivo hypocholesterolemic activity in normocholesterolemic chickens (serum lipid parameters); details: for response vs control in vivo at 4 mg/kg/day: Gallus gallus, po, 672 h
Method: (§2) Hypocholesterolemic activity was evaluated for the synthetic analogues using γ-tocotrienol as a control in normocholesterolemic chickens. Newborn male chicks (6-10 for each group) were raised on a standard corn-soybean-based control diet for two weeks and then were switched to either control or experimental diets for four weeks. Drug treatment consisted of the addition of test compound to the corn-soybean-based. At the end of the feeding period, all the birds were fasted (about 36 hours) and refed (about 48 hours) to induce cholesterolgenic enzymes prior to sacrifice. The specific activity of HMG-CoA reductase, total serum cholesterol levels, HDL/LDL cholesterol pools, and triglyceride levels (data not shown) were examined (Table II).
(§3) Effects of BMS Compounds on Lipid Parameters in Male
(§4) Orally dosed for 4-weeks at 4 mg/kg/day

[3] = biological target: T1, HMG-CoA reductase (Homo sapiens, UniProt P04035); assay: HMG-CoA reductase suppression (specific activity, microsomal fraction of HepG2 cells); assay type: cell-based; details: 4 hours incubation, read-out: HMGR Suppression
T1 construct: assayed in the microsomal fraction isolated from parallel cultures; endogenous in cells; host or cells: HepG2 (human hepatoma)
T1 sequence (P04035 1-888): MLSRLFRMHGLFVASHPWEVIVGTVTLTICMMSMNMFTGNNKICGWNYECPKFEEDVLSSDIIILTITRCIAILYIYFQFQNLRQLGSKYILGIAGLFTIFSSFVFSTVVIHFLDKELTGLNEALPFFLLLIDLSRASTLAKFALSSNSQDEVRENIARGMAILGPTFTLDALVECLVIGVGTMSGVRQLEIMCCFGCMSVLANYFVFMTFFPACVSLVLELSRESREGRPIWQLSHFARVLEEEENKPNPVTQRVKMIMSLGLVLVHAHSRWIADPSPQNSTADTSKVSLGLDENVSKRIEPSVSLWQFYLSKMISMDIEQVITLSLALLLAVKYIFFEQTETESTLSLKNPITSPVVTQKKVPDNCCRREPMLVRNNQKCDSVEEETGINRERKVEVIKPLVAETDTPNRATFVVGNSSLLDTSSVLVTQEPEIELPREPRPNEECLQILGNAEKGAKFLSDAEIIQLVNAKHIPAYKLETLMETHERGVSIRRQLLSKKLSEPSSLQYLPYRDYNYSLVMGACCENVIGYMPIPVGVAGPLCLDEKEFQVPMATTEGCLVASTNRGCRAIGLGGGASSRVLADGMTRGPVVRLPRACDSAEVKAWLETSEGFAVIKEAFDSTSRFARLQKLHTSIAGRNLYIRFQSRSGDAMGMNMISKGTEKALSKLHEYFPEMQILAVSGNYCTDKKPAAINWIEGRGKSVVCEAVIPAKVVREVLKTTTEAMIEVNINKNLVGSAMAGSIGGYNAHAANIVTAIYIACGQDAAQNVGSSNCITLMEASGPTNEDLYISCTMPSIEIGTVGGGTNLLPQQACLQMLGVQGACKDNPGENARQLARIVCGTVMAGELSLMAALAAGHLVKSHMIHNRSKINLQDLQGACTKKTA
Method: as §1

[4] = tested on: HMG-CoA reductase; assay: HMG-CoA reductase specific activity in normocholesterolemic chickens; assay type: in vivo; details: male chickens, orally dosed for 4 weeks at 4 mg/kg/day
Method: as §2, §3, §4

[5] = man, cited from earlier work
[6] = tested on: submitochondrial particles; details: in words; cited from earlier work
[7] = tested on: LDL; details: in words; cited from earlier work
[8] = tested on: rat liver microsomes and mitochondrial membranes; details: in words; cited from earlier work
[9] = male chickens, orally dosed for 4 weeks at 4 mg/kg/day, read-out: HDL-C
[10] = male chickens, orally dosed for 4 weeks at 4 mg/kg/day, read-out: LDL-C
[11] = male chickens, orally dosed for 4 weeks at 4 mg/kg/day, total serum cholesterol, read-out: Tot.-C

SMILES: CC(C)=CCC/C(C)=C/CC/C(C)=C/CC1=CC(=O)C=CC1=O [Example 10, 2-(3,7,11-Trimethyl-2(E),6(E),10-Dodecatrienyl)-2,5-Cyclohexadiene-4-Dione]
activity at 10 µM [1]: 95%

SMILES: CC(C)=CCC/C(C)=C/CC/C(C)=C/CCC(O)CCC1=CC(=O)C=CC1=O (stereo not drawn) [Example 11, 2-(3-Hydroxy-7,11,15-Trimethyl-6(E),10(E),14-Hexadecatrienyl)-2,5-Cyclohexadiene-1,4-Dione]
activity at 10 µM [1]: 75%
response vs control in vivo at 4 mg/kg/day [2, 9]: 96.9%
response vs control in vivo at 4 mg/kg/day [2, 10]: 80.1%
response vs control in vivo at 4 mg/kg/day [2, 11]: 87.2%

activity at 10 µM [3]: 74%
SMILES: CC(C)=CCC/C(C)=C/CC/C(C)=C/CCC(O)CCC1=CC(=O)C(C)=C(C)C1=O (stereo not drawn) [Example 12, 5-(3-Hydroxy-7,11,15-Trimethyl-6(E),10(E),14-Hexadecatrienyl)-2,3-Dimethyl-2,5-Cyclohexadiene-1,4-Dione]
activity at 10 µM [1]: 3%
response vs control in vivo at 4 mg/kg/day [2, 9]: 95%
response vs control in vivo at 4 mg/kg/day [2, 10]: 73%
response vs control in vivo at 4 mg/kg/day [2, 11]: 82.7%

SMILES: CC1=C(C)C(=O)C(CCC(C)(O)CC/C=C(\C)CCc2cccc(C(F)(F)F)c2)=CC1=O (stereo not drawn) [Example 13, 5-(3,7-Dimethyl-3-Hydroxy-9-[3-(Trifluoromethyl)phenyl]-6(E)-Nonenyl)-2,3-Dimethyl-2,5-cyclohexadiene-1,4-Dione]
HMGR [4]: 59.9 % of Control
response vs control in vivo at 4 mg/kg/day [2, 9]: 75.6%
response vs control in vivo at 4 mg/kg/day [2, 10]: 32%
response vs control in vivo at 4 mg/kg/day [2, 11]: 57.7%

SMILES: CC(C)=CCC/C(C)=C/CC/C(C)=C/CCC(C)(O)CCC1=CC(=O)c2ccccc2C1=O (stereo not drawn) [Example 14, 2-(3-Hydroxy-3,7,11,15-Tetramethyl-6(E),10(E),14-Hexadecatrienyl)-1,4-Naphthalene-1,4-dione]
activity at 10 µM [1]: 10%
response vs control in vivo at 4 mg/kg/day [2, 9]: 94.7%
response vs control in vivo at 4 mg/kg/day [2, 10]: 69.4%
response vs control in vivo at 4 mg/kg/day [2, 11]: 82.4%

activity at 10 µM [3]: 79%
SMILES: CC(C)=CCC/C(C)=C/CC/C(C)=C/CCC(C)(O)CCC1=CC(=O)C(C)=C(C)C1=O (stereo not drawn) [Example 15, 5-(3-Hydroxy-3,7,11,15-Tetramethyl-6(E),10(E),14-Hexadecatrienyl)-2,3-Dimethyl-2,5-cyclohexadiene-1,4-Dione]
activity at 10 µM [1]: 89%
activity in the cholesterol suppression assay in vitro ([1]; in words): very active in the cholesterol suppression assay in vitro
cholesterol/HMGR suppression in vitro, relative to γ-tocotrienol ([1]; in words, refers to Table I): very similar cholesterol/HMGR suppression in vitro and in vivo
HMGR [4]: 67.4 % of Control
response vs control in vivo at 4 mg/kg/day [2, 9]: 90.5%
response vs control in vivo at 4 mg/kg/day [2, 10]: 59%
response vs control in vivo at 4 mg/kg/day [2, 11]: 76.7%
activity in the chick model, relative to γ-tocotrienol ([2]; in words): comparable activity to γ-tocotrienol in the chick model
cholesterol/HMGR suppression in vivo, relative to γ-tocotrienol ([2]; in words, refers to Table II): very similar cholesterol/HMGR suppression in vitro and in vivo

SMILES: CC(C)=CCC/C(C)=C/CC/C(C)=C/CCC(C)(O)CCC1=CC(=O)C=CC1=O (stereo not drawn) [Example 16, 2-(3-Hydroxy-3,7,11,15-Tetramethyl-6(E),10(E),14-Hexadecatrienyl)-2,5-cyclohexadiene-1,4-Dione Hydrate]
activity at 10 µM [1]: 74%
response vs control in vivo at 4 mg/kg/day [2, 9]: 95.8%
response vs control in vivo at 4 mg/kg/day [2, 10]: 94.9%
response vs control in vivo at 4 mg/kg/day [2, 11]: 93.8%

SMILES: COC1=C(OC)C(=O)C(CCCCCCCCCCO)=C(C)C1=O [Idebenone]
absorption rate ([5]; in words): absorbed rapidly
intestinal absorption ([5]; in words): low intestinal absorption
bioavailability ([5]; low intestinal absorption): 15-30%

SMILES: COc1c(O)c(C)c(C/C=C(\C)CC/C=C(\C)CC/C=C(\C)CC/C=C(\C)CC/C=C(\C)CC/C=C(\C)CC/C=C(\C)CC/C=C(\C)CC/C=C(\C)CCC=C(C)C)c(O)c1OC [Ubiquinol]
lipid peroxidation inhibition [6]: inhibits lipid peroxidation

SMILES: CC(C)=CCC/C(C)=C/CC/C(C)=C/CC/C(C)=C/CC1=C(C)C(=O)c2ccccc2C1=O [Vitamin K2, reference compound]
response vs control in vivo at 4 mg/kg/day [2, 9]: 105%
response vs control in vivo at 4 mg/kg/day [2, 10]: 146%
response vs control in vivo at 4 mg/kg/day [2, 11]: 116%
cholesterol levels in vivo ([2]; in words, Vitamin K2 (n=4), refers to Table II): appears to actually elevate cholesterol levels

SMILES: COc1c(O)c(C)c(C/C=C(\C)CC/C=C(\C)CC/C=C(\C)CC/C=C(\C)CC/C=C(\C)CC/C=C(\C)CC/C=C(\C)CC/C=C(\C)CC/C=C(\C)CCC=C(C)C)c(O)c1OC [ubiquinol-10]
LDL oxidation inhibition [7]: inhibitor of LDL oxidation
LDL oxidation inhibition efficiency relative to tocopherol [7]: much more efficient than tocopherol

SMILES: COC1=C(OC)C(=O)C(C/C=C(\C)CC/C=C(\C)CC/C=C(\C)CC/C=C(\C)CC/C=C(\C)CC/C=C(\C)CC/C=C(\C)CC/C=C(\C)CC/C=C(\C)CCC=C(C)C)=C(C)C1=O [ubiquinone]
effect on tocopherol [8]: sparing effect on tocopherol

SMILES: CC(C)=CCC/C(C)=C/CC/C(C)=C/CC[C@]1(C)CCc2cc(O)c(C)c(C)c2O1 [γ-Tocotrienol, reference compound]
activity at 10 µM [1]: 29%
activity at 10 µM [3]: 65%
response vs control in vivo at 4 mg/kg/day ([2]; read-out: HDL-C): 87%
response vs control in vivo at 4 mg/kg/day ([2]; read-out: LDL-C): 54.8%
response vs control in vivo at 4 mg/kg/day ([2]; read-out: Tot.-C): 76.3%

From patent publication US5318993A, “Antihyperlipidemic benzoquinones” (Bristol-Myers Squibb Company, priority 1993, dated 1994)
